Assay results from patent US20250197428A1, “INHIBITORS OF KIF18A AND USES THEREOF” (ACCENT THERAPEUTICS, INC., priority 2022, published 2025).
Read-outs that look alike come from different tables or passages of the source.

Columns and labels:
OVCAR-3 cells = assay: In vitro anti-proliferative activity assay in cancer cell line OVCAR-3 (CellTiter-Glo, 4- or 7-day); assay type: cell-based; details: Homo sapiens, read-out: OVCAR-3 cellular antiproliferation assay IC50
KIF18A = KIF18A (Homo sapiens (Human), UniProt Q8NI77); assay: KIF18A Biochemical Assay (ATPase, ADP-Glo)
Chain of KIF18A (Q8NI77 1-367): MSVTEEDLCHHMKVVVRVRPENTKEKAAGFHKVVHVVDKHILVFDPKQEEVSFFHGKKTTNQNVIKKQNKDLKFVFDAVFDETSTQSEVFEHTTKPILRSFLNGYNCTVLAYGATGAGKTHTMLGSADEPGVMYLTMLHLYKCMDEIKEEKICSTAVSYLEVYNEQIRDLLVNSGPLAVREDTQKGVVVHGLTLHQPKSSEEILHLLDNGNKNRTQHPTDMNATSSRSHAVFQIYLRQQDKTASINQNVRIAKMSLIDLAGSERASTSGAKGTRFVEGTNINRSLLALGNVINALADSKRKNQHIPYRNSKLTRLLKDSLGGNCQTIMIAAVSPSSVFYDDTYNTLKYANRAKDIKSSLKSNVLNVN
Chain of KIF18A (P02550 whole entry partner): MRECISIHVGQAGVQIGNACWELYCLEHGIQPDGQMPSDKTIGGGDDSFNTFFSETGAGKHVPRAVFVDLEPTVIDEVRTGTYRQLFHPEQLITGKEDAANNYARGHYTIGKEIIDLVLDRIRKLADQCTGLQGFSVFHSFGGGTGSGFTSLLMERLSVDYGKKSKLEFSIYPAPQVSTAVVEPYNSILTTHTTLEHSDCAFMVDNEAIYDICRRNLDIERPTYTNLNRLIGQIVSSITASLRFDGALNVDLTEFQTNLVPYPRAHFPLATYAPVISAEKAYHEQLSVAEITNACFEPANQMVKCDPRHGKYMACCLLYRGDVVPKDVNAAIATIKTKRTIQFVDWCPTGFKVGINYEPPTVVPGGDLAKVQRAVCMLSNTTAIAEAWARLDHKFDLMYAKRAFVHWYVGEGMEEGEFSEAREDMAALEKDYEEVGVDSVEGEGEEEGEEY
Chain of KIF18A (P02554 whole entry partner): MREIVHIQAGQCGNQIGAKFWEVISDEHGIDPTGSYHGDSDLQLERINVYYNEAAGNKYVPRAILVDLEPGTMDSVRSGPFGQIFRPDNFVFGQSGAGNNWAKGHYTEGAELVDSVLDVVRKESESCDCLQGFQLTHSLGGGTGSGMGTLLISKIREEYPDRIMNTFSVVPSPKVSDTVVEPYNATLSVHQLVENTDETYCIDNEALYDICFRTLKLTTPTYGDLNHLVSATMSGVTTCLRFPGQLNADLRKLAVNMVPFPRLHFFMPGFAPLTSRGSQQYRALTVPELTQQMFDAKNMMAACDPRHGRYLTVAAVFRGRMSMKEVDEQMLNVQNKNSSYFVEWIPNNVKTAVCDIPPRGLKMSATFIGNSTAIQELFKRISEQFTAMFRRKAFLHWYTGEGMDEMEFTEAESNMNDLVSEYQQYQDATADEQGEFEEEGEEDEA

[1] = Caco-2 permeation assay, bidirectional permeability; assay type: in vitro ADME; details: human, Caco-2, pH 7.4, 5 μM, Papp(B-A)/Papp(A-B)
Protocol: 1. Caco-2 Permeation Assay: Evaluation of the Bidirectional Permeabilities of Compounds.
Samples were analyzed through LC/MS/MS for estimating the apparent permeability coefficients (Papp) of compounds across Caco-2 cell monolayers. Caco-2 cells (American Type Culture Collection) were incubated and seeded onto HTS Transwell-96 Well Permeable Supports (Corning Corporation) for 14 days using a cell medium consisting of Dulbecco's Modified Eagle's Medium (DMEM) with high glucose and L-glutamine supplemented with 10% FBS, 1× penicillin-streptomycin mixture and 1×non-essential amino acids (NEAA). Cell monolayer integrity was measured using an automated tissue resistance measuring system (World Precision Instruments). Stock solutions of compounds and control compounds in DMSO were diluted with HBSS (10 mM HEPES, pH 7.4) to reach a final concentration of 5 μM with a final concentration of DMSO <0.1%. HBSS was then removed after 30 minutes of preincubation, and 75 μL of test compound was added to the apical compartment of the Transwell insert. The basolateral compartment was filled with 235 μL of HBSS (10 mM HEPES, pH 7.4) containing 2% BSA. Rate of drug transport in the basolateral to apical direction was obtained by adding 235 μL of test compound to the receiver plate wells (basolateral compartment) and filling with 75 μL of HBSS (10 mM HEPES, pH 7.4) containing 2% BSA. Time 0 samples were prepared by transferring 25 μL of 5 μM working solution to wells of the 96-deepwell plate containing 25 μL HBSS (10 mM HEPES and 2% BSA, pH 7.4), followed by the addition 200 μL of cold methanol containing appropriate internal standards (100 nM alprazolam, 200 nM labetalol, 200 nM caffeine and 200 nM diclofenac). After incubating at 37° C. for 2 h, 25 μL samples from donor sides (apical compartment) were transferred to a 96-well plate containing 25 μL HBSS (10 mM HEPES and 2% BSA, pH 7.4). 25 μL samples from receiver sides (basolateral compartment) were removed and transferred to a new plate containing 25 μL HBSS (10 mM HEPES, pH 7.4). 200 μL of cold methanol containing internal standards (100 nM alprazolam, 200 nM labetalol, 200 nM caffeine and 200 nM diclofenac) was added to terminate the reaction. Samples were vortexed for 5 minutes and then centrifuged at 3,220 g for 40 minutes. An aliquot of 100 μL of the supernatant is mixed with 100 μL of ultra-pure water for LC-MS/MS analysis. All incubations are performed in duplicate. Solutions were discarded from the transwell plate. 100 μL Lucifer Yellow solution (100 μM in HBSS) was added to each well of transwell insert and 300 μL of HBSS to each well of receiver. After incubating at 37° C. for 30 minutes, 80 μL was aliquotted from each well of apical and basolateral sides to a solid black plate. The plate was then read with Tecan Infinite™ M 200 (Excitation/Emission wavelength […]).
All calculations were carried out using Microsoft Excel. Peak areas were determined from extracted ion chromatograms. The leakage of Lucifer Yellow, in unit of percentage (%), can be calculated using the following equation: […]
LY leakage of <1% is acceptable to indicate the well-qualified Caco-2 monolayers. The apparent permeability coefficient (Papp), in units of centimeter per second, can be calculated for Caco-2 drug transport assays using the following equation: […]
Where VA is the volume (in mL) in the receiver well (0.235 mL for Ap→Bl flux and 0.075 mL for Bl→Ap flux), Area is the surface area of the membrane (0.143 cm^2 for HTS Transwell-96 Well Permeable Supports), and time is the total transport time in seconds. The efflux ratio can be determined using the following equation: […]
Where Papp (B-A) indicates the apparent permeability coefficient in basolateral to apical direction, and Papp (A-B) indicates the apparent permeability coefficient in apical to basolateral direction.
The recovery can be determined using the following equation: […]

Structure (SMILES) | IC50 (OVCAR-3 cells; OVCAR-3, 168 h, 7-day assay) [nM] | IC50 (KIF18A) [nM] | efflux ratio at 2 h, 5 μM [1] | IC50 (OVCAR-3 cells; OVCAR-3, 96 h, 4-day assay) [nM]
O=C(Nc1ccnc(N2CCC(F)(F)CC2)n1)c1c(F)cc(NS(=O)(=O)CCO)cc1N1CC[C@]2(C(F)F)C[C@@H]2C1 [Example 69] | > 1000 | < 100 | – | –
Cc1cc(NC(=O)c2c(F)cc(NS(=O)(=O)CCO)cc2N2CC[C@]3(C(F)F)C[C@@H]3C2)nc(N2CCC(F)(F)CC2)n1 [Example 71] | > 1000 | 100 to 500 | – | –
Cc1cc(NC(=O)c2ccc(NS(=O)(=O)CCO)cc2N2CC[C@]3(C(F)F)C[C@@H]3C2)nc(OC[C@@H](O)C(F)(F)F)n1 [Example 73] | > 1000 | > 1000 | – | –
Cc1cc(NC(=O)c2ccc(NS(=O)(=O)CCO)cc2N2CC[C@@]3(C(F)F)C[C@H]3C2)nc(OC[C@@H](O)C(F)(F)F)n1 [Example 74] | > 1000 | > 1000 | – | –
O=C(Nc1ccnc(C2CCC(F)(F)CC2)n1)c1ccc(NS(=O)(=O)CCO)cc1N1CC[C@@]2(C(F)F)C[C@H]2C1 [Example 76] | 100 to 500 | < 100 | – | –
Cc1cc(NC(=O)c2ccc(S(=O)(=O)NCCO)cc2N2CC[C@]3(C(F)F)C[C@@H]3C2)nc(N2CCC(F)(F)CC2)n1 [Example 77] | 100 to 500 | 100 to 500 | – | –
Cc1cc(NC(=O)c2ccc(NS(=O)(=O)CCO)cc2N2CC[C@]3(C(C)(F)F)C[C@@H]3C2)nc(N2CCC(F)(F)CC2)n1 [Example 79] | > 1000 | 100 to 500 | – | –
Cc1cc(NC(=O)c2ccc(NS(=O)(=O)CCO)cc2N2CC[C@@]3(C(C)(F)F)C[C@H]3C2)nc(N2CCC(F)(F)CC2)n1 [Example 80] | 100 to 500 | 100 to 500 | – | –
CO[C@]12CCN(c3cc(NS(=O)(=O)CCO)ccc3C(=O)Nc3cc(C)nc(N4CCC(F)(F)CC4)n3)C[C@H]1C2 [Example 81] | 500 to 1000 | < 100 | – | –
CO[C@@]12CCN(c3cc(NS(=O)(=O)CCO)ccc3C(=O)Nc3cc(C)nc(N4CCC(F)(F)CC4)n3)C[C@@H]1C2 [Example 82] | 500 to 1000 | < 100 | – | –
O=C(Nc1cccc(N2CCC(F)(F)CC2)n1)c1c(F)cc(NS(=O)(=O)CCO)cc1N1CC[C@]2(C(F)F)C[C@@H]2C1 [Example 83] | 500 to 1000 | < 100 | – | –
C[Si]1(C)CCN(c2cc(NS(=O)(=O)CCO)ccc2C(=O)Nc2cccc(C3(C(F)(F)F)N=N3)c2)CC1 [Example 87] | 100 to 500 | < 100 | – | –
C[Si]1(C)CCN(c2cc(NS(=O)(=O)CCO)c(F)cc2NC(=O)c2ccnc(N3CCC(F)(F)CC3)n2)CC1 [Example 90] | 100 to 500 | – | < 10 | –
C[Si]1(C)CCN(c2cc(NS(=O)(=O)CCO)ccc2C(=O)Nc2ccnc(N3CCCC(C#N)C3)n2)CC1 (stereo not drawn) [Example 94] | – | – | < 10 | 100 to 500
C[Si]1(C)CCN(c2cc(NS(=O)(=O)CCO)ccc2NC(=O)c2cccc(N3CCC(F)(F)CC3)n2)CC1 [Example 96] | – | – | < 10 | < 100
CC(C)(CO)Nc1ccc(C(=O)Nc2cccc(S(=O)(=O)C3CCCC3)c2)c(N2CC[Si](C)(C)CC2)n1 [Example 97] | > 1000 | > 1000 | – | –
C[Si]1(C)CCN(c2cc(S(=O)(=O)NCCO)ccc2C(=O)Nc2cccc(OCCC(F)(F)F)n2)CC1 [Example 99] | < 100 | < 100 | – | –

Structure (SMILES) | IC50 (OVCAR-3 cells; OVCAR-3, 168 h, 7-day assay) [nM] | IC50 (KIF18A) [nM] | efflux ratio at 2 h, 5 μM [1] | IC50 (OVCAR-3 cells; OVCAR-3, 96 h, 4-day assay) [nM]
CNCCS(=O)(=O)Nc1ccc(C(=O)Nc2cccc(N3CCC(F)(F)CC3)n2)c(N2CC[Si](C)(C)CC2)c1 [Example 101] | 100 to 500 | < 100 | – | –
Cc1cc(NC(=O)c2cc(F)c(NS(=O)(=O)CCO)cc2N2CC[Si](C)(C)CC2)nc(N2CCC(F)(F)CC2)n1 [Example 103] | 100 to 500 | < 100 | – | –
Cc1cc(NC(=O)c2ncc(NS(=O)(=O)CCO)nc2N2CC[Si](C)(C)CC2)nc(N2CCC(F)(F)CC2)n1 [Example 105] | > 1000 | > 1000 | – | –
Cc1cc(NC(=O)c2ccc(NS(=O)(=O)C(C)CO)cc2N2CC[Si](C)(C)CC2)nc(N2CC(F)(F)C2)c1 (stereo not drawn) [Example 114] | < 100 | < 100 | – | –
Cc1cc(NC(=O)c2c(F)cc(NS(=O)(=O)CCO)c(F)c2N2CC[Si](C)(C)CC2)nc(N2CCC(F)(F)CC2)n1 [Example 116] | > 1000 | 500 to 1000 | – | –
C[Si]1(C)CCN(c2cc(NS(=O)(=O)CCO)ccc2C(=O)Nc2cccc(OC[C@H](O)C(F)(F)F)n2)CC1 [Example 122] | < 100 | < 100 | – | –
C[Si]1(C)CCN(c2cc(NS(=O)(=O)CCO)cc(F)c2C(=O)Nc2cccc(OC[C@@H](O)C(F)(F)F)n2)CC1 [Example 123] | 500 to 1000 | < 100 | – | –
C[Si]1(C)CCN(c2cc(NS(=O)(=O)CCO)cc(F)c2C(=O)Nc2cccc(OC[C@H](O)C(F)(F)F)n2)CC1 [Example 124] | 100 to 500 | < 100 | – | –
C[Si]1(C)CCN(c2cc(NS(=O)(=O)NCCO)ccc2C(=O)Nc2cccc(OC[C@@H](O)C(F)(F)F)n2)CC1 [Example 125] | 100 to 500 | < 100 | – | –
C[Si]1(C)CCN(c2cc(NS(=O)(=O)NCCO)ccc2C(=O)Nc2cccc(OC[C@H](O)C(F)(F)F)n2)CC1 [Example 126] | 100 to 500 | < 100 | – | –
C[Si]1(C)CCN(c2cc(NS(C)(=O)=O)ccc2C(=O)Nc2cccc(OC[C@H](O)C(F)(F)F)n2)CC1 [Example 128] | 100 to 500 | < 100 | – | –
C[Si]1(C)CCN(c2cc(S(=O)(=O)CCO)ccc2C(=O)Nc2cccc(OC[C@@H](O)C(F)(F)F)n2)CC1 [Example 129] | 100 to 500 | < 100 | – | –
C[Si]1(C)CCN(c2cc(S(=O)(=O)CCO)ccc2C(=O)Nc2cccc(OC[C@H](O)C(F)(F)F)n2)CC1 [Example 130] | 100 to 500 | < 100 | – | –
C[Si]1(C)CCN(c2cc(S(=O)(=O)NCCO)ccc2C(=O)Nc2cccc(OC[C@@H](O)C(F)(F)F)n2)CC1 [Example 131] | < 100 | < 100 | – | –
C[Si]1(C)CCN(c2cc(S(=O)(=O)NCCO)ccc2C(=O)Nc2cccc(OC[C@H](O)C(F)(F)F)n2)CC1 [Example 132] | < 100 | < 100 | – | –
Cc1cc(NC(=O)c2ccc(NS(=O)(=O)CCO)cc2N2CC[Si](C)(C)CC2)nc(N2CCC(F)(F)CC2)c1F [Example 133] | 100 to 500 | < 100 | – | –
